Experimental data taken from patent US20190209618A1, “METHODS AND COMPOSITIONS FOR EXPANSION OF HEMATOPOIETIC STEM AND/OR PROGENITOR CELLS EMPLOYING A CYTOCHROME P450 1B1 (CYP1B1) INHIBITOR OR A MUSASHI-2 (MSI2) ACTIVATOR” (McMaster University, priority 2016, published 2019).
Read-outs that look alike come from different tables or passages of the source.

How the values were obtained:
Lin− CD34+CB HSPCs = assay: High throughput screen of CYP family inhibitors for in vitro HSPC expansion
Description: FIG. 16: Primary screen for inhibitors of Cytochrome […] oxidases and promotion of in vitro HSPC expansion by primitive marker expression. 1000 flow sorted Lin− CD34+CB HSPCs were plated per well of a 96-well plate and test compounds were added at three doses (0.1 uM, 1.0 uM, 10 uM) in triplicate. Cell cultures were refreshed with medium every 3 days and at day 10 cells were counted and assessed for CD34 marker expression. […] Columns marked by “x” have a >2-fold increase compared to DMSO. Columns marked by “o” show at least a 1.5-fold increase compared to DMSO control. […] Data shown as mean+/−SEM from n=3 cultures.
FIG. 17: Primary screen for inhibitors of Cytochrome […] oxidases and promotion of in vitro HSPC expansion by total number CD34 marked cells. 1000 flow sorted Lin− CD34+CB HSPCs were plated per well of a 96-well plate and test compounds were added at three doses (0.1 uM, 1.0 uM, 10 uM) in triplicate. Cell cultures were refreshed with medium every 3 days and at day 10 cells were counted and assessed for CD34 marker expression. […] Columns marked by “x” have a >2-fold increase compared to DMSO. Columns marked by “o” show at least a 1.5-fold increase compared to DMSO control. […] Data shown as mean+/−SEM from n=3 cultures.
A screening approach was undertaken that tested the function of 3 alkaloid, 9 coumarin, and 17 flavonoid based compounds ([…], Table 1). The screening approach used 96-well plates seeded with 1000 FACS-purified CD34+ cells and treatment with 3 concentrations of each compound performed in triplicate culture wells (9 wells total per compound). Cells were cultured for 10 days and resultant growth was measured for cell number and surface marker expression by automated flow cytometer (MACS Quant).

Lin− CD34+ cells [1] = assay: HSPC expansion with TMS; type: cell-based, human; conditions: TMS 10 μM vs 0.1% DMSO, during culture
Description: Lin^− CD34^+ cells were cultured for 72 hours (lentiviral treated but non-transduced flow-sorted GFP^− cells) in StemSpan medium containing growth factors IL-6 (20 ng/ml), SCF (100 ng/ml), FLT3-L (100 ng/ml) and TPO (20 ng/ml) before the addition of the CYP1B1 inhibitor TMS (Abcam) at a concentration of 10 μM or mock treatment with 0.1% DMSO. Equal numbers of cells (12,000 per condition) were then allowed to proliferate for 7 days at which point they were counted and immunophenotyped for CD34 and CD133 expression.

CYP enzymes = conditions: cited from earlier work
Lin− CD34+ cells [2] = assay: MSI2 OE and control suspension cultures with AHR antagonist SR1; type: cell-based, human; conditions: SR1 750 nM vs DMSO, 10 days
Description: GFP^+ cells were isolated (20,000 cells per culture) and allowed to proliferate with or without SR1 for an additional 7 days at which point they were counted and immunophenotyped for CD34 and CD133 expression. […] GFP^+ cells were isolated (20,000 cells per culture) and allowed to proliferate with FICZ (200 nM; Santa Cruz Biotechnology) or DMSO (0.1%) for an additional 3 days at which point they were immunophenotyped for CD34 and CD133 expression.

AHR = AHR ChIP-seq comparison to downregulated gene sets; set-up: species or system human; conditions: ChIP-seq-identified AHR targets; SR1 500 nM, UM171 35 nM gene sets
Excerpt: Percentage of down regulated genes with AHR bound regions was then graphed for each gene set. P-values were generated with Fisher's exact test between gene lists.

[3] = summary statement referring to the Examples

## COc1cc(/C=C/c2ccc(OC)cc2OC)cc(OC)c1 [TMS, (E)-2,3′,4,5′-Tetramethoxystilbene]
Lin− CD34+CB HSPCs; 1000 CD34+ cells per well, 0.1, 1.0, 10 uM, 10 days
  % CD34+ at day 10 relative to DMSO: > 2 fold
Lin− CD34+CB HSPCs; [3]
  self-renewal and expansion of hematopoietic stem and progenitor cell cultures: promote the self-renewal and expansion
Lin− CD34+ cells [1]
  increase in frequency of CD34+ cells: 1.5 fold
  increase in total numbers of CD34+ cells: 2 fold

## O=c1c(-c2ccc(O)cc2)coc2cc(O)ccc12 [Daidzein, 7-Hydroxy-3-(4-hydroxyphenyl) chromen-4-one]
CYP enzymes
  IC50: 7.9 µM

## O=C1CC(c2ccc(O)cc2)Oc2cc(O)cc(O)c21 (centres unmarked) [Naringenin, 5,7-Dihydroxy-2-(4-hydroxyphenyl)chroman-4-one]
Lin− CD34+CB HSPCs; [3]
  self-renewal and expansion of hematopoietic stem and progenitor cell cultures: promote the self-renewal and expansion

## O=c1cc(-c2ccccc2)oc2cc(O)cc(O)c12 [Chrysin, 5,7-Dihydroxy-2-phenyl-4H-chromen-4-one]
Lin− CD34+CB HSPCs
  self-renewal and expansion of hematopoietic stem and progenitor cell cultures: promote the self-renewal and expansion

## COc1ccc(-c2cc(=O)c3c(O)cc(O)cc3o2)cc1 [Acacetin, 5,7-dihydroxy-2-(4-methoxyphenyl)-4H-1-benzopyran-4-one]
Lin− CD34+CB HSPCs; [3]
  self-renewal and expansion of hematopoietic stem and progenitor cell cultures: promote the self-renewal and expansion

## CC(C)n1cnc2c(NCCc3ccc(O)cc3)nc(-c3csc4ccccc34)nc21 [SR1, StemRegenin 1]
Lin− CD34+ cells [2]; MSI2 OE cultures
  increase in percentage of CD34+ cells: 4 fold
Lin− CD34+ cells [2]; control transduced cultures
  increase in percentage of CD34+ cells: 8 fold
AHR
  enrichment of direct transcriptional targets of AHR in downregulated gene set compared to UM171: 5.6 fold
